In patent US20050238666A1, “Methods of enhancing stem cell engraftment” (priority 2003, published 2005):

How the values were obtained:
[1] = system: hematopoietic progenitor cells; experiment: Colony assay in methylcellulose (CFU) of transduced bone marrow progenitor cells; assay type: cell-based, mouse; conditions: expression of the transgene in the cells; FIG. 9
Description: Mouse Low Density Bone Marrow (LDBM) Isolation and Viral Transduction: Whole bone marrow was collected from C57B1/6 animals (Jackson Laboratory, Bar Harbor, Me.), 48 h after treatment with 5-fluorouracil (150 mg/kg of body weight, IP; American Pharmaceutical Partners, Los Angeles, Calif.) and was re-suspended in RPMI medium (Life Technologies, Inc.). Bone marrow cells were obtained from the animals, and low-density, mononuclear bone marrow (LDBM) cells are isolated from fresh bone marrow (BM) by density centrifugation on Histopaque-1083 (Sigma, […].) gradient for 20 min at 1,700 rpm at room temperature. Cells at the interface were collected and washed twice with Roswell Park Memorial Institute (RPMI) Media and then counted on a hemocytometer. […] Cells were subsequently analyzed and sorted for green fluorescence protein (GFP) using a Fluorescence Activated Cell Sorting (FACS) (Becton Dickinson, San Jose, Calif.). […]
The transduction efficiency of the cells was tested using the following assay: Colony assay: 2×10^4 cells re-suspended in 4 mL complete methylcellulose (Metho Cult™ GF M3434, Stem Cell Technologies) were plated in 35 mm grided non-tissue culture dishes (Nalge Nunc Int.) (1 mL/dish). The colonies were scored after 10 days incubation in 5% CO2 at 37° C. […]

hematopoietic stem cells = experiment: In vivo transplantation and engraftment study (EGFP+ cells by FACS and CFU); set-up: species or system C57BL/6 mice
Description: FIG. 2 is a graphical representation of the experimental design showing the design for injecting mice with bone marrow cells. The peripheral blood (PB) cells were tested for EGFP+ cells by FACS analysis and the bone marrow (BM) cells were tested for EGFP+ cells by FACS analysis and by CFU assay.
4×10^5 cells were injected into C57BL/6 mice (8-10 weeks old). Prior to the transplant, the mice were irradiated with 11.75 Gy in split dose (7 Gy and 4.75 Gy) using a Cs^137 source with a minimum of 3 h between doses. For engraftment studies, 100 μL tail vein blood samples were withdrawn from each transplanted mouse every 4 weeks. Peripheral blood cells were incubated in red blood cell lysis buffer (Pharmingen, San Diego, Calif.) for […] at room temperature. Cells were then washed twice and re-suspended in 1 ml of PBS and 0.2% bovine serum albumin (BSA) (Roche Applied Sciences, Indianapolis, Ind.). The percentages of GFP^+ cells of each sample were analyzed by flow cytometry. Sixteen weeks post transplant bone marrow and spleen were isolated from the experimental animals. Cells isolated from these organs were incubated in red blood cells lysis buffer, re-suspended in PBS, 0.2% BSA and analyzed by flow cytometry, as described above.
The ability of hematopoietic progenitor cells to form colonies was analyzed in the presence of various transgenes expressing normal and mutated forms of GTPases. […]

Row | Substance | ability of hematopoietic progenitor cells to form colonies [1] | engraftment: EGFP+ peripheral blood cells in transplanted animals (hematopoietic stem cells; 3, 7, 11 and 16 weeks post transplant, normalized to control cells at 3 weeks, FIG. 6) | stem cell (HSC) engraftment (hematopoietic stem cells; peripheral blood, bone marrow, spleen, CFU, secondary transplant, FIGS. 6, 8, 9 and 10)
1 | RhoAN19: dominant negative mouse RhoA protein with threonine to asparagine point mutation at position 19, expressed from retroviral vector | not affected | advantageous | advantageous
2 | Cdc42N17: dominant negative Cdc42 cDNA cloned into a murine stem cell virus-based bicistronic EGFP vector | not affected |  | 
